One assay deals with Caenorhabditis elegans. Briefly: Increase in life span of Caenorhabditis elegans Bristol N2 at late L4 larval stage at 100 uM in presence of 5-fluorodesoxyuridine relative to control. The class given is functional.
For orientation: ILS means how much longer treated animals lived than controls. As for `CO[C@H]1C[C@@H]2CC[C@@H](C)[C@@](O)(O2)C(=O)C(=O)N2CCCC[C@H]2C(=O)O[C@H]([C@H](C)C[C@@H]2CC[C@@H](O)[C@H](OC)C2)CC(=O)[C@H](C)/C=C(\C)[C@@H](O)[C@@H](OC)C(=O)[C@H](C)C[C@H](C)/C=C/C=C/C=C/1C` [SIROLIMUS], the ILS at 100 µM stood at 38%.

The test system of a further assay is Caenorhabditis elegans. The assay can be described thus: Increase in life span of Caenorhabditis elegans Bristol N2 at late L4 larval stage at 50 uM in presence of 5-fluorodesoxyuridine relative to control. The class given is functional.
Consider `CC(=O)OC[C@]12[C@@H](OC(=O)c3ccccc3)[C@@H](OC(C)=O)[C@@H]3[C@@H](OC(C)=O)[C@]1(OC3(C)C)[C@H](C)C[C@H](OC(C)=O)[C@@H]2OC(C)=O`, for which the ILS at 50 µM was 16%.
As for `CC(=O)O[C@H]1[C@@H]2[C@@H](OC(=O)c3ccccc3)[C@]3(OC2(C)C)[C@H](C)C[C@@H](OC(C)=O)[C@H](OC(C)=O)[C@@]3(C)[C@H]1OC(=O)c1ccccc1`, the ILS at 50 µM amounted to 28%.
On the same count and under the same terms, for `CC(=O)O[C@@H]1[C@@H]2[C@@H](OC(C)=O)[C@]3(OC2(C)C)[C@H](C)C[C@H](OC(=O)/C=C/c2ccccc2)[C@H](OC(C)=O)[C@@]3(C)[C@@H]1OC(=O)c1ccccc1` the value was 15%; for `CC(=O)O[C@@H]1[C@@H]2[C@@H](OC(C)=O)[C@]3(OC2(C)C)[C@H](C)CC(=O)[C@H](OC(C)=O)[C@@]3(C)[C@@H]1OC(=O)c1ccccc1`, 37%; for `CC(=O)O[C@H]1[C@@H]2C[C@]3(OC2(C)C)[C@H](C)C[C@H](OC(C)=O)[C@@H](OC(C)=O)[C@@]3(C)[C@H]1OC(=O)c1ccccc1`, 12%.
Still for that read-out and setting: the figure for `CC(=O)O[C@H]1[C@@H]2[C@@H](OC(C)=O)[C@]3(OC2(C)C)[C@H](C)C[C@@H](OC(C)=O)[C@H](OC(C)=O)[C@@]3(C)[C@H]1OC(=O)c1ccccc1` is 15%; for `CC(=O)O[C@@H]1[C@H]2C[C@H](OC(=O)c3ccccc3)[C@]3(C)[C@@H](OC(C)=O)[C@H](OC(C)=O)C[C@@H](C)[C@@]13OC2(C)C` it is 14%.
Turning to `CC(=O)O[C@@H]1[C@@H]2[C@@H](OC(C)=O)[C@]3(OC2(C)C)[C@H](C)C[C@@H](OC(C)=O)[C@H](OC(C)=O)[C@@]3(C)[C@@H]1OC(=O)c1ccccc1`, the ILS at 50 µM was determined as 17%.
Still for that read-out and setting: the figure for `CC(=O)O[C@@H]1[C@@H]2[C@@H](OC(C)=O)[C@]3(OC2(C)C)[C@H](C)CC[C@H](O)[C@@]3(C)[C@@H]1OC(=O)c1ccccc1` is 16%.

The record behind these values is ChEMBL document CHEMBL3997778, “β-Dihydroagarofuran-Type Sesquiterpenes from the Seeds of Celastrus monospermus and Their Lifespan-Extending Effects on the Nematode Caenorhabditis elegans” (2016).
